Laboratory results from ChEMBL document CHEMBL1133819, “Structure-based design of caspase-1 inhibitor containing a diphenyl ether sulfonamide” (Bioorg Med Chem Lett, 2001).

Legend:
[1] = target: T1, Caspase-1 (Homo sapiens, UniProt P29466); test: Inhibitory concentration against caspase-1 was determined
T1 sequence (P29466 whole entry): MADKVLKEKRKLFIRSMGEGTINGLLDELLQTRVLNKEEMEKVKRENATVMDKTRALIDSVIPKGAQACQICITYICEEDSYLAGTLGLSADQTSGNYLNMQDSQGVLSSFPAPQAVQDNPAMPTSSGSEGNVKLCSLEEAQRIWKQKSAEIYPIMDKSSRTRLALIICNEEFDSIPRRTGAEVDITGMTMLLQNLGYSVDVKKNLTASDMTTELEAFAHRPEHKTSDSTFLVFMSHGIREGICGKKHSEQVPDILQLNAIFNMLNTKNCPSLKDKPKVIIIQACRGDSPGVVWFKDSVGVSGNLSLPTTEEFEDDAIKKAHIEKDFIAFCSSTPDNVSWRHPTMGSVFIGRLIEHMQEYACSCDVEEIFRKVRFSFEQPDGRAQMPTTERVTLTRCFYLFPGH

[2] = target: T1, Caspase-1; test: Binding affinity towards caspase-1 was determined

SMILES	IC50 [1]	Ki [2]
CC(C)c1cccc(Oc2ccccc2S(=O)(=O)N[C@H](C=O)C(=O)O)c1	3.7 µM	0.41 µM
CCC(C)c1ccc(Oc2ccccc2S(=O)(=O)N[C@H](C=O)C(=O)O)cc1C (some centres undefined)	1 µM	0.1 µM
O=C[C@@H](NS(=O)(=O)c1ccccc1Oc1ccc(-c2ccccc2)cc1)C(=O)O	4.4 µM	0.29 µM
Cc1ccccc1Oc1ccccc1S(=O)(=O)N[C@H](C=O)C(=O)O	14 µM	3 µM
Cc1ccc(Oc2ccccc2S(=O)(=O)N[C@H](C=O)C(=O)O)cc1	9 µM	1.1 µM
CCC(CC)c1ccc(Oc2ccccc2S(=O)(=O)N[C@H](C=O)C(=O)O)cc1	3.5 µM	0.44 µM
O=C[C@@H](NS(=O)(=O)c1ccccc1Oc1ccc(C2CCCC2)cc1)C(=O)O	4.8 µM	0.88 µM
O=C[C@@H](NS(=O)(=O)c1ccccc1Oc1ccc(C2CCCCC2)cc1)C(=O)O	4.3 µM	0.9 µM
O=C[C@@H](NS(=O)(=O)c1ccccc1Oc1ccc(-c2ccc(C(=O)O)cc2)cc1)C(=O)O	58 µM	4.2 µM
Cc1cccc(Oc2ccccc2S(=O)(=O)N[C@H](C=O)C(=O)O)c1	11 µM	0.43 µM
Cc1cc(Oc2ccccc2S(=O)(=O)N[C@H](C=O)C(=O)O)ccc1C(C)C	1 µM	0.11 µM
Cc1cccc(Oc2ccccc2S(=O)(=O)N[C@H](C=O)C(=O)O)c1C	13 µM	1 µM

Continued by falling IC50 [1], values first:

IC50 [1]	Ki [2]	SMILES
24 µM	24 µM	O=C[C@@H](NS(=O)(=O)c1ccccc1Oc1ccccc1)C(=O)O
20 µM	1.6 µM	O=C[C@@H](NS(=O)(=O)c1ccccc1-c1ccccc1)C(=O)O
7.8 µM	0.45 µM	Cc1cc(Oc2ccccc2S(=O)(=O)N[C@H](C=O)C(=O)O)cc(C)c1C
5.3 µM	0.62 µM	CC(C)c1ccc(Oc2ccccc2S(=O)(=O)N[C@H](C=O)C(=O)O)cc1
2.2 µM	0.49 µM	CCC(C)c1ccc(Oc2ccccc2S(=O)(=O)N[C@H](C=O)C(=O)O)cc1 (some centres undefined)
